ChEMBL document CHEMBL1135525, “Probing the ATP ribose-binding domain of cyclin-dependent kinases 1 and 2 with O(6)-substituted guanine derivatives” (J Med Chem, 2002)

Experiments:
[1] = target: T1, Cyclin-dependent kinase 2/cyclin A (Homo sapiens) (UniProt P24941+P20248+P78396); assay: Inhibition of human Cyclin-dependent kinase 2-cyclin A at a concentration of 10 uM; type: protein-complex assay
[2] = target: T2, Cyclin-dependent kinase 1/cyclin B1 (Homo sapiens, UniProt P06493+P14635); assay: Inhibition of starfish oocyte (Marthasteria glacialis) Cyclin-dependent kinase 1-cyclin B1 at a concentration of 10 uM; type: protein-complex assay; details: Asteroidea
Target sequence in this assay (P06493 whole entry, looked up): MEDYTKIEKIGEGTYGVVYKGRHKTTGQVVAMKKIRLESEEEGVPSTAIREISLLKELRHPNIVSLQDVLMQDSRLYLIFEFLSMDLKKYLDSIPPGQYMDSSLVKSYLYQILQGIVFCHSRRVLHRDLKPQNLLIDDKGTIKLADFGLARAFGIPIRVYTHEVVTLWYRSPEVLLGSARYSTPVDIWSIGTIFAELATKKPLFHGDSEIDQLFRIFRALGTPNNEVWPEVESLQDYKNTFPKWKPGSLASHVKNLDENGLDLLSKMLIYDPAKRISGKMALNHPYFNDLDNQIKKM
Target sequence in this assay (P14635 whole entry, looked up): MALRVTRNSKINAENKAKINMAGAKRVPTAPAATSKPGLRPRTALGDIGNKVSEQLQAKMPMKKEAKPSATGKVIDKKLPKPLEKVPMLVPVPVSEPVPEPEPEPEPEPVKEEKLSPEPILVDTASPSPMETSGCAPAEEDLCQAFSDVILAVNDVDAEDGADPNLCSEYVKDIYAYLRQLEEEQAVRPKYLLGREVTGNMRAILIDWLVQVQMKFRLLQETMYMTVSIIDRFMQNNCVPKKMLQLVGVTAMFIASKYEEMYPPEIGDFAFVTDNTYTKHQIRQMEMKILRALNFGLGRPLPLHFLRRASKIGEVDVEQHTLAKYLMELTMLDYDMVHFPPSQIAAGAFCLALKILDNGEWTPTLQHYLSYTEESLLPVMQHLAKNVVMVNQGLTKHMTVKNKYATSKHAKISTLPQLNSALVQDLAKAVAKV

[3] = target: T1, Cyclin-dependent kinase 2/cyclin A (Homo sapiens); assay: Inhibition of human Cyclin-dependent kinase 2-cyclin A3 at a concentration of 100 uM; type: protein-complex assay
[4] = target: T2, Cyclin-dependent kinase 1/cyclin B1; assay: Inhibition of starfish oocyte (Marthasteria glacialis) Cyclin-dependent kinase 1-cyclin B1 at a concentration of 100 uM; type: protein-complex assay; details: Asteroidea
Target sequence in this assay (P06493 whole entry, looked up): as the sequence (P06493 whole entry, looked up) above
Target sequence in this assay (P14635 whole entry, looked up): as the sequence (P14635 whole entry, looked up) above

[5] = target: T1, Cyclin-dependent kinase 2/cyclin A (Homo sapiens); assay: Inhibition of human Cyclin-dependent kinase 2-cyclin A at a concentration of 100 uM; type: protein-complex assay
[6] = target: T1, Cyclin-dependent kinase 2/cyclin A (Homo sapiens); assay: Inhibition of human Cyclin-dependent kinase 2-cyclin A3 at 100 uM; type: protein-complex assay
[7] = target: T3, Cyclin-dependent kinase 2/cyclin A (Homo sapiens, UniProt P24941); assay: Inhibition of human Cyclin-dependent kinase 2-cyclin A; type: protein-complex assay
[8] = target: T1, Cyclin-dependent kinase 2/cyclin A (Homo sapiens); assay: Inhibition of Cyclin-dependent kinase 2-cyclin A at 10 uM; type: protein-complex assay
[9] = target: T1, Cyclin-dependent kinase 2/cyclin A (Homo sapiens); assay: Inhibition of human Cyclin-dependent kinase 2-cyclin A at 100 uM; type: protein-complex assay
[10] = target: T2, Cyclin-dependent kinase 1/cyclin B1; assay: Inhibition of starfish oocyte (Marthasteria glacialis) Cyclin-dependent kinase 1-cyclin B1; type: protein-complex assay, Asteroidea
Target sequence in this assay (P06493 whole entry): as the sequence (P06493 whole entry, looked up) above
Target sequence in this assay (P14635 whole entry): as the sequence (P14635 whole entry, looked up) above

[11] = target: T3, Cyclin-dependent kinase 2/cyclin A; assay: Inhibition of human Cyclin-dependent kinase 2-cyclin A3; type: protein-complex assay
MCF7 = assay: Inhibition of MCF-7 human breast carcinoma cell proliferation; type: functional
[12] = target: T1, Cyclin-dependent kinase 2/cyclin A (Homo sapiens); assay: Inhibition of Cyclin-dependent kinase 2-cyclin A at 100 uM; type: protein-complex assay

SMILES	inhibition [4] [%]	IC50 [7] [µM]	other results
Nc1nc(OCc2cccc3ccccc23)c2nc[nH]c2n1			inhibition [1]: 3%; inhibition [2]: 10%
Nc1nc(OCc2ccc3ccccc3c2)c2[nH]cnc2n1			inhibition [1]: 9%; inhibition [2]: 12%
C#CCOc1nc(N)nc2nc[nH]c12		90	
Nc1nc(OCc2ccccc2)c2[nH]cnc2n1 [6-O-BENZYLGUANINE]		35	
CC(C)Oc1[nH]c(N)nc2ncnc1-2		75	
Nc1nc(OCC2=CCCCC2)c2[nH]cnc2n1		22	
Nc1nc(OCC2=CCCC2)c2[nH]cnc2n1		31	
CC(C)COc1nc(N)nc2[nH]cnc12		42	
CCC(COc1nc(N)nc2[nH]cnc12)(OC)OC		20	IC50 [10]: 19 µM
C=C(COc1nc(N)nc2[nH]cnc12)C(C)C		16	
CC(C)C1(COc2nc(N)nc3[nH]cnc23)OCCO1			IC50 [11]: 65 µM
C=C(C)[C@H]1CC=C(COc2nc(N)nc3[nH]cnc23)CC1			inhibition [1]: 18%; inhibition [2]: 17%
CCCCCOc1nc(N)nc2[nH]cnc12		49	
Nc1nc(OCC23CC4CC(CC(C4)C2)C3)c2nc[nH]c2n1			inhibition [1]: 29%; inhibition [2]: 55%
C=C(C)COc1nc(N)nc2nc[nH]c12		35	
CCC(C)Oc1nc(N)nc2[nH]cnc12 (stereo not drawn)		25	
C=C(COc1nc(N)nc2nc[nH]c12)c1ccccc1		34	GI50 (MCF7): 28 µM

SMILES	inhibition [4] [%]	IC50 [7] [µM]	other results
CCCCOc1nc(N)nc2[nH]cnc12		48	
Nc1nc(OCCC2CCCCC2)c2nc[nH]c2n1		44	
C=C(CC)COc1nc(N)nc2[nH]cnc12		21	
C=CCOc1nc(N)nc2nc[nH]c12		78	
CC(C)CCOc1nc(N)nc2nc[nH]c12		26	
C=CCCCCOc1nc(N)nc2[nH]cnc12		47	
Nc1nc(OCc2cccc(Cl)c2)c2nc[nH]c2n1			inhibition [2]: 28%; inhibition [8]: 19%
CCC(C)COc1nc(N)nc2nc[nH]c12 (stereo not drawn)		15	
Nc1nc(OCCc2ccccc2)c2nc[nH]c2n1		65	
CCCOc1nc(N)nc2nc[nH]c12		67	
Nc1nc(OCC2CCCC2)c2nc[nH]c2n1		21	
CCOC.CCOC(C)COc1[nH]c(N)nc2ncnc1-2 (stereo not drawn)		33	
Nc1nc(OCC2CCCCC2)c2nc[nH]c2n1			GI50 (MCF7): 20 µM
Nc1nc(OCC2CC=CCC2)c2[nH]cnc2n1 (stereo not drawn)		13	GI50 (MCF7): 37 µM
CCCCCCCOc1nc(N)nc2[nH]cnc12		> 100	IC50 [10]: 62 µM
CC/C=C/CCOc1nc(N)nc2[nH]cnc12		69	
Nc1nc(OCC=C2CCCCC2)c2nc[nH]c2n1			inhibition [1]: 12%; inhibition [2]: 21%

More lines, main results first:

inhibition [4] [%]	SMILES	IC50 [7] [µM]	other results
70	Nc1nc(OCC2CCCNC2)c2nc[nH]c2n1 (stereo not drawn)		inhibition [3]: 64%
36	COc1nc(N)nc2nc[nH]c12		inhibition [5]: 35%
50	Nc1nc(OCC2CCCCO2)c2nc[nH]c2n1 (stereo not drawn)		inhibition [6]: 43%
35	Nc1nc(OCC(O)CO)c2nc[nH]c2n1 (stereo not drawn)		inhibition [5]: 33%
52	Nc1nc(OCC2CCNCC2)c2nc[nH]c2n1		inhibition [3]: 43%
65	COc1cccc(COc2nc(N)nc3[nH]cnc23)c1		inhibition [8]: 49%
31	CC1(C)OC[C@H](COc2nc(N)nc3[nH]cnc23)O1		inhibition [3]: 27%
70	Cc1cccc(COc2nc(N)nc3nc[nH]c23)c1		inhibition [9]: 52%
15	CC(=O)COc1nc(N)nc2[nH]cnc12		inhibition [5]: 16%
22	Nc1nc(OC[C@@H]2CCC(=O)N2)c2nc[nH]c2n1		inhibition [3]: 15%
43	CC1(C)OCC(COc2nc(N)nc3[nH]cnc23)O1 (stereo not drawn)		inhibition [3]: 36%
55	Nc1nc(OCc2cccnc2)c2nc[nH]c2n1		inhibition [3]: 43%
46	CC1(C)OC[C@@H](COc2nc(N)nc3[nH]cnc23)O1		inhibition [3]: 39%
49	COCC(COc1nc(N)nc2[nH]cnc12)OC (stereo not drawn)		inhibition [5]: 41%
26	Nc1nc(OCC2COC3(CCCCC3)O2)c2[nH]cnc2n1 (stereo not drawn)		inhibition [3]: 29%
41	CC(C)C(=O)COc1nc(N)nc2nc[nH]c12		inhibition [5]: 31%
65	Nc1cccc(COc2nc(N)nc3[nH]cnc23)c1		inhibition [12]: 52%
58	Nc1nc(OCc2ccccn2)c2nc[nH]c2n1		inhibition [3]: 43%
52	Nc1nc(OCC2COc3ccccc3O2)c2nc[nH]c2n1 (stereo not drawn)		inhibition [3]: 52%
10	CC1(C)OC2OC(COc3nc(N)nc4[nH]cnc34)C3OC(C)(C)OC3C2O1 (stereo not drawn)		inhibition [3]: 4%
49	Nc1nc(OCC2CCCO2)c2[nH]cnc2n1 (stereo not drawn)		inhibition [5]: 40%
50	Nc1nc(OC[C@H]2CCC(=O)N2)c2nc[nH]c2n1		inhibition [3]: 35%
10	COC1OC(COc2nc(N)nc3[nH]cnc23)C2OC(C)(C)OC12 (stereo not drawn)		inhibition [3]: 16%; GI50 (MCF7): > 100 µM
48	CCOc1nc(N)nc2[nH]cnc12		inhibition [5]: 51%
